In ChEMBL document CHEMBL3399920, “Microwave-assisted synthesis, characterization and cytotoxic studies of novel estrogen receptor α ligands towards human breast cancer cells” (Bioorg Med Chem Lett, 2015) one finds IC50 data, which are given here for 10 compounds.

The test system of assay [1] is MCF7. Description: Cytotoxicity against human MCF7 cells after 48 hrs by MTT assay. Type of assay: functional, cell-based. To be noted: MCF7, 48 h. On the technique in general: Formazan colour is commonly taken as a measure of viable cells.
Assay [2] relates to HepG2. Description: Cytotoxicity against human HepG2 cells after 48 hrs by MTT assay. Type of assay: functional, cell-based. To be noted: HepG2, 48 h.
Assay [3] concerns MDA-MB-231. Description: Cytotoxicity against human MDA-MB-231 cells after 48 hrs by MTT assay. Type of assay: functional, cell-based. The settings on record: MDA-MB-231, 48 h.
Assay [4] concerns BT-549. Description: Cytotoxicity against human BT549 cells after 48 hrs by MTT assay. It counts as functional, cell-based. To be noted: BT-549, 48 h.
Assay [5] in a line: Cytotoxicity against human MCF10A cells after 72 hrs by MTT assay. Type of assay: cell-based. To be noted: MCF-10A.

What is called IC50 is the point on the concentration scale where inhibition reaches its midpoint. Low values mean greater potency in that assay, high ones weaker potency in that assay. `Oc1ccccc1-c1ccc2ccccc2n1`: the IC50 in assay [1] and in assay [2] was > 50 µM throughout.

On to `Cc1ccc2nc(-c3ccccc3Br)ccc2c1`, for which the IC50 in assay [1] and in assay [2] was > 50 µM throughout.

Consider `Clc1ccc(-c2ccc3ccccc3n2)c(Cl)c1`, for which the IC50 was 25 µM in assay [1]; 31.6 µM in assay [2]; > 100 µM in assay [3]; > 100 µM in assay [4]; > 100 µM in assay [5].

Consider `Nc1ccc(-c2ccc3ccc(Cl)cc3n2)cc1`, for which the IC50 was 6 µM in assay [1]; 11 µM in assay [2]; > 100 µM in assay [3]; > 100 µM in assay [4]; > 100 µM in assay [5].

For the compound `Cc1ccc2nc(-c3ccc(Cl)cc3Cl)ccc2c1`, the 50% inhibitory concentration (IC50) in assay [1] and in assay [2] was > 50 µM throughout.

Turning to `Brc1ccc(-c2ccc3ccccc3n2)cc1`, the 50% inhibitory concentration (IC50) was 12 µM in assay [1]; 9 µM in assay [2]; > 100 µM in assay [3]; > 100 µM in assay [4]; 60.3 µM in assay [5].

For `Cc1ccc2nc(-c3ccc(N)cc3)ccc2c1`, the IC50 in assay [1] was 34 µM; in assay [2], 41 µM.

Consider `Cc1ccc2nc(-c3cc(O)ccc3O)ccc2c1`, for which the half-inhibitory concentration (IC50) was determined as 28 µM in assay [1] and 19 µM in assay [2].

Turning to `Cc1ccc2nc(-c3cccc([N+](=O)[O-])c3)ccc2c1`, the 50% inhibitory concentration (IC50) in assay [1] was 23 µM; in assay [2], 37 µM; in assay [3], > 100 µM; in assay [4], > 100 µM; in assay [5] it was > 100 µM.

As to `Cc1ccc2nc(-c3ccccc3)ccc2c1`, the half-maximal inhibitory concentration (IC50) in assay [1] and in assay [2] was > 50 µM throughout.
